According to patent EP0908457B1, “3-(1,2-benzisothiazol- and isoxazol-5-Y1)-2,4(1H,3H)-pyrimidinedione or thione and 3-(1,2-benzisothiazol- and isoxazol-5-y1)-4(3H)-pyrimidinone or thione herbicidal agents” (BASF AKTIENGESELLSCHAFT, priority 1997, dated 1999):

Key:
Format in all cases: in vivo
Sagittaria pygmaea, L. = experiment: Preemergence weed control under flooded paddy conditions, SAGPY (Arrowhead (Pygmaea)); details: preemergence, flooded paddy, rated three to four weeks after treatment
[1] = test system: Cyperus serotinus, Rottb.; experiment: Preemergence weed control under flooded paddy conditions, CYPSE (Flatsedge); details: preemergence, rated three to four weeks after treatment
[2] = test system: Monochoria vaginalis, Presl.; experiment: Preemergence weed control under flooded paddy conditions, MOOVA (Monochoria); details: preemergence, flooded paddy, rated three to four weeks after treatment
[3] = test system: Echinochloa oryzoides (Ard.) Fritsch.; experiment: Preemergence weed control under flooded paddy conditions, ECHORC (Watergrass (Calif.)); details: preemergence, flooded paddy, rated three to four weeks after treatment
Cyperus iria = experiment: Preemergence weed control under flooded paddy conditions, CYPIR (Rice Flatsedge); details: preemergence, flooded paddy, rated three to four weeks after treatment
Also: meaning of each grade not given here.

Structure (SMILES)	herbicidal effect rating, SAGPY (Sagittaria pygmaea, L.; Rate 0.0320 kg/ha)	herbicidal effect rating, SAGPY (Sagittaria pygmaea, L.; Rate 0.0620 kg/ha)	herbicidal effect rating, SAGPY (Sagittaria pygmaea, L.; Rate 0.1250 kg/ha)	herbicidal effect rating, SAGPY (Sagittaria pygmaea, L.; Rate 0.2500 kg/ha)	herbicidal effect rating, CYPSE ([1]; Rate 0.0320 kg/ha)	herbicidal effect rating, CYPSE ([1]; Rate 0.0620 kg/ha)	herbicidal effect rating, CYPSE ([1]; Rate 0.1250 kg/ha)	herbicidal effect rating, CYPSE ([1]; Rate 0.2500 kg/ha)	herbicidal effect rating, MOOVA ([2]; Rate 0.0320 kg/ha)	herbicidal effect rating, MOOVA ([2]; Rate 0.0620 kg/ha)	herbicidal effect rating, MOOVA ([2]; Rate 0.1250 kg/ha)	herbicidal effect rating, MOOVA ([2]; Rate 0.2500 kg/ha)	herbicidal effect rating, ECHORC ([3]; Rate 0.0320 kg/ha)	herbicidal effect rating, ECHORC ([3]; Rate 0.0620 kg/ha)	herbicidal effect rating, ECHORC ([3]; Rate 0.1250 kg/ha)	herbicidal effect rating, ECHORC ([3]; Rate 0.2500 kg/ha)	herbicidal effect rating, CYPIR (Cyperus iria; Rate 0.0320 kg/ha)	herbicidal effect rating, CYPIR (Cyperus iria; Rate 0.0620 kg/ha)	herbicidal effect rating, CYPIR (Cyperus iria; Rate 0.1250 kg/ha)	herbicidal effect rating, CYPIR (Cyperus iria; Rate 0.2500 kg/ha)	other results
Cn1c(C(F)(F)F)cc(=O)n(-c2ccc3snc(COC(=O)c4ccccc4)c3c2)c1=O [Example 364, 2,4(1H,3H)-Pyrimidinedione, 3-[3-(hydroxymethyl)-1,2-benzisothiazol-5-yl]-1-methyl-6-(trifluoromethyl)-, benzoate (ester)]	4.0	4.0	5.0	9.0	3.0	3.0	5.0	6.0	9.0	9.0	9.0	9.0	3.0	5.0	6.0	6.0	7.0	7.0	9.0	9.0	herbicidal effect rating, SAGPY (Sagittaria pygmaea, L.; Rate 0.5000 kg/ha): 9.0; herbicidal effect rating, CYPSE ([1]; Rate 0.5000 kg/ha): 7.0; herbicidal effect rating, MOOVA ([2]; Rate 0.5000 kg/ha): 9.0; herbicidal effect rating, ECHORC ([3]; Rate 0.5000 kg/ha): 7.0; herbicidal effect rating, CYPIR (Cyperus iria; Rate 0.5000 kg/ha): 9.0
Cn1c(C(F)(F)F)cc(=O)n(-c2ccc3snc(COC(=O)CCl)c3c2)c1=O [Example 368, 2,4(1H,3H)-Pyrimidinedione, 3-[3-(hydroxymethyl)-1,2-benzisothiazol-5-yl]-1-methyl-6-(trifluoromethyl)-, chloroacetate (ester)]	5.0	6.0	9.0	9.0	0.0	4.0	7.0	8.0	9.0	9.0	9.0	9.0	3.0	7.0	7.0	8.0	7.0	9.0	9.0	9.0	–
CC(C)S(=O)(=O)OCc1nsc2ccc(-n3c(=O)cc(C(F)(F)F)n(C)c3=O)cc12 [Example 371, 2,4(1H,3H)-Pyrimidinedione, 3-[3-(hydroxymethyl)-1,2-benzisothiazol-5-yl]-1-methyl-6-(trifluoromethyl)-, 1-methylethanesulfonate (ester)]	3.0	4.0	9.0	9.0	0.0	0.0	6.0	9.0	9.0	9.0	9.0	9.0	3.0	4.0	6.0	7.0	4.0	6.0	9.0	9.0	–
Cn1c(C(F)(F)F)cc(=O)n(-c2ccc3snc(COC(=O)Nc4ccccc4)c3c2)c1=O [Example 375, 2,4(1H,3H)-Pyrimidinedione, 3-[3-(hydroxymethyl)-1,2-benzisothiazol-5-yl]-1-methyl-6-(trifluoromethyl)-, phenylcarbamate (ester)]	7.0	9.0	9.0	9.0	0.0	0.0	4.0	7.0	9.0	9.0	9.0	9.0	6.0	6.0	9.0	9.0	3.0	4.0	6.0	9.0	–
CCCCS(=O)(=O)OCc1nsc2ccc(-n3c(=O)cc(C(F)(F)F)n(C)c3=O)cc12 [Example 381, 2,4(1H,3H)-Pyrimidinedione, 3-[3-(hydroxymethyl)-1,2-benzisothiazol-5-yl]-1-methyl-6-(trifluoromethyl)-, butanesulfonate (ester)]	3.0	5.0	6.0	7.0	0.0	4.0	7.0	7.0	6.0	7.0	8.0	8.0	0.0	3.0	4.0	6.0	6.0	7.0	8.0	8.0	–
Cn1c(C(F)(F)F)cc(=O)n(-c2ccc3snc(COC(=O)NCc4ccccc4)c3c2)c1=O [Example 390, 2,4(1H,3H)-Pyrimidinedione, 3-[3-(hydroxymethyl)-1,2-benzisothiazol-5-yl]-1-methyl-6-(trifluoromethyl)-, benzylcarbamate (ester)]	2.5	5.5	8.0	8.0	2.5	–	4.0	9.0	9.0	9.0	9.0	9.0	5.5	7.0	8.0	9.0	1.0	4.0	7.0	9.0	herbicidal effect rating, SAGPY (Sagittaria pygmaea, L.; Rate 0.5000 kg/ha): 9.0; herbicidal effect rating, CYPSE ([1]; Rate 0.5000 kg/ha): 6.0; herbicidal effect rating, MOOVA ([2]; Rate 0.5000 kg/ha): 9.0; herbicidal effect rating, ECHORC ([3]; Rate 0.5000 kg/ha): 9.0; herbicidal effect rating, CYPIR (Cyperus iria; Rate 0.5000 kg/ha): 9.0
Cn1c(C(F)(F)F)cc(=O)n(-c2ccc3snc(CSc4ccccc4)c3c2)c1=O [Example 392, 2,4(1H,3H)-Pyrimidinedione, 1-methyl-3-{3-[(phenylthio)methyl]-1,2-benzisothiazol-5-yl}-6-(trifluoromethyl)-]	0.0	0.0	0.0	0.0	0.0	0.0	0.0	0.0	6.0	7.0	7.0	9.0	5.0	7.0	9.0	9.0	0.0	0.0	3.0	7.0	–
Cn1c(C(F)(F)F)cc(=O)n(-c2ccc3snc(CS(=O)(=O)c4ccccc4)c3c2)c1=O [Example 393, 2,4(1H,3H)-Pyrimidinedione, 1-methyl-3-{3-[(phenylsulfonyl)methyl]-1,2-benzisothiazol-5-yl}-6-(trifluoromethyl)-]	0.0	–	3.0	4.0	0.0	0.0	3.0	6.0	7.0	8.0	8.0	9.0	2.0	4.0	4.0	9.0	0.0	3.0	3.0	6.0	–
